# What was measured:
# Type in all cases: physicochemical
# [1] = Long-term stability of Temozolomide prepared by the process of the present invention, 25° C. ± 2° C., 60% ± 5% RH; conditions: for AICA NMT 0.15% / Appearance (White to off-white powder) / Assay (HPLC) (98.0-102.0%) / Purity (HPLC) NLT 99.0% / Total impurities NMT 1.00% / Water content (KF), NMT 1.00% / AHX NMT 0.15% / Individual unknown impurity NMT 0.10%: process of the present invention, 25° C. ± 2° C., RH 60% ± 5%
# Text: The Temozolomide was stable at temperature 25 degree ° C. for at least 18 months.
# [2] = Accelerated stability of Temozolomide prepared by conventional method, 25° C. ± 2° C., 60% ± 5% RH; conditions: for AICA NMT 0.15% / Appearance (White to off-white powder) / Assay (HPLC) (98.0-102.0%) / Individual unknown impurity NMT 0.10% / Purity (HPLC) NLT 99.0% / Total impurities NMT 1.00% / Water content (KF), NMT 1.00%: conventional method, 25° C. ± 2° C., RH 60% ± 5%
# [3] = Long-term stability of Temozolomide prepared by conventional method, 2-8° C.; conditions: for AICA NMT 0.15% / Appearance (White to off-white powder) / Assay (HPLC) (98.0-102.0%) / Individual unknown impurity NMT 0.10% / Purity (HPLC) NLT 99.0% / Total impurities NMT 1.00% / Water content (KF), NMT 1.00%: conventional method, 2-8° C.
# Method: The Temozolomide was stable at temperature 2-8° C.
# [4] = Long-term stability of Temozolomide prepared by the process of the present invention, 2-8° C.; conditions: for AICA NMT 0.15% / Appearance (White to off-white powder) / Assay (HPLC) (98.0-102.0%) / Purity (HPLC) NLT 99.0% / Total impurities NMT 1.00% / Water content (KF), NMT 1.00%: process of the present invention, 2-8° C.
# Method: The Temozolomide was stable at temperature 2-8° C. for at least 18 months.
smiles,measurement,setting,value
"Cn1nnc2c(C(N)=O)ncn2c1=O [Temozolomide, 8-carbamoyl-3-methyl-imidazo[5,1-d]-1,2,3,5-tetrazin-4(3H)-one]",Time stable,"[1]; prepared by the process of the present invention, temperature 25 degree ° C.",at least 18 months
same,AICA NMT 0.15%,[1]; 0 time,0.01%
same,Appearance (White to off-white powder),[1]; 0 time,White
same,Assay (HPLC) (98.0-102.0%),[1]; 0 time,99.7%
same,Purity (HPLC) NLT 99.0%,[1]; 0 time,100.0%
same,Total impurities NMT 1.00%,[1]; 0 time,0.01%
same,"Water content (KF), NMT 1.00%",[1]; 0 time,0.09%
same,AICA NMT 0.15%,[1]; 1 month,0.01%
same,Appearance (White to off-white powder),[1]; 1 month,White
same,Assay (HPLC) (98.0-102.0%),[1]; 1 month,100.0%
same,Purity (HPLC) NLT 99.0%,[1]; 1 month,100.0%
same,Total impurities NMT 1.00%,[1]; 1 month,0.01%
same,"Water content (KF), NMT 1.00%",[1]; 1 month,0.12%
same,AICA NMT 0.15%,[1]; 2 months,0.01%
same,Appearance (White to off-white powder),[1]; 2 months,White
same,Assay (HPLC) (98.0-102.0%),[1]; 2 months,99.4%
same,Purity (HPLC) NLT 99.0%,[1]; 2 months,100.0%
same,Total impurities NMT 1.00%,[1]; 2 months,0.01%
same,"Water content (KF), NMT 1.00%",[1]; 2 months,0.04%
same,AHX NMT 0.15%,[1]; 3 months,0.01%
same,AICA NMT 0.15%,[1]; 3 months,0.11%
same,Appearance (White to off-white powder),[1]; 3 months,White
same,Assay (HPLC) (98.0-102.0%),[1]; 3 months,99.4%
same,Purity (HPLC) NLT 99.0%,[1]; 3 months,99.7%
same,Total impurities NMT 1.00%,[1]; 3 months,0.11%
same,"Water content (KF), NMT 1.00%",[1]; 3 months,0.11%
same,Appearance (White to off-white powder),[1]; 6 months,White
same,Assay (HPLC) (98.0-102.0%),[1]; 6 months,99.3%
same,Purity (HPLC) NLT 99.0%,[1]; 6 months,100.0%
same,"Water content (KF), NMT 1.00%",[1]; 6 months,0.13%
same,AICA NMT 0.15%,[1]; 9 months,0.02%
same,Appearance (White to off-white powder),[1]; 9 months,White
same,Assay (HPLC) (98.0-102.0%),[1]; 9 months,100.8%
same,Purity (HPLC) NLT 99.0%,[1]; 9 months,99.9%
same,Total impurities NMT 1.00%,[1]; 9 months,0.02%
same,"Water content (KF), NMT 1.00%",[1]; 9 months,0.17%
same,AHX NMT 0.15%,[1]; 12 months,0.01%
same,AICA NMT 0.15%,[1]; 12 months,0.02%
same,Appearance (White to off-white powder),[1]; 12 months,Light pink
same,Assay (HPLC) (98.0-102.0%),[1]; 12 months,99.8%
same,Individual unknown impurity NMT 0.10%,[1]; 12 months,0.01%
same,Purity (HPLC) NLT 99.0%,[1]; 12 months,99.9%
same,Total impurities NMT 1.00%,[1]; 12 months,0.04%
same,"Water content (KF), NMT 1.00%",[1]; 12 months,0.04%
same,AICA NMT 0.15%,[1]; 18 months,0.01%
same,Appearance (White to off-white powder),[1]; 18 months,White
same,Assay (HPLC) (98.0-102.0%),[1]; 18 months,99.4%
same,Individual unknown impurity NMT 0.10%,[1]; 18 months,0.01%
same,Purity (HPLC) NLT 99.0%,[1]; 18 months,100.0%
same,Total impurities NMT 1.00%,[1]; 18 months,0.02%
same,"Water content (KF), NMT 1.00%",[1]; 18 months,0.07%
same,AICA NMT 0.15%,[2]; 0 time,0.06%
same,Appearance (White to off-white powder),[2]; 0 time,White
same,Assay (HPLC) (98.0-102.0%),[2]; 0 time,101.7%
same,Individual unknown impurity NMT 0.10%,[2]; 0 time,0.01%
same,Purity (HPLC) NLT 99.0%,[2]; 0 time,99.9%
same,Total impurities NMT 1.00%,[2]; 0 time,0.08%
same,"Water content (KF), NMT 1.00%",[2]; 0 time,0.17%
same,AICA NMT 0.15%,[2]; 1 month,0.24%
same,Appearance (White to off-white powder),[2]; 1 month,Off-white
same,Assay (HPLC) (98.0-102.0%),[2]; 1 month,101.7%
same,Individual unknown impurity NMT 0.10%,[2]; 1 month,0.01%
same,Purity (HPLC) NLT 99.0%,[2]; 1 month,99.8%
same,Total impurities NMT 1.00%,[2]; 1 month,0.25%
same,"Water content (KF), NMT 1.00%",[2]; 1 month,0.25%
same,AICA NMT 0.15%,[2]; 2 months,0.64%
same,Appearance (White to off-white powder),[2]; 2 months,Off-white
same,Assay (HPLC) (98.0-102.0%),[2]; 2 months,99.4%
same,Individual unknown impurity NMT 0.10%,[2]; 2 months,0.01%
same,Purity (HPLC) NLT 99.0%,[2]; 2 months,99.3%
same,Total impurities NMT 1.00%,[2]; 2 months,0.67%
same,"Water content (KF), NMT 1.00%",[2]; 2 months,0.24%
same,Stability (in words),"[2]; prepared by conventional method, temperature 25 degree ° C.",easily to degrade to out of specification
same,AICA NMT 0.15%,[3]; 0 time,0.06%
same,Appearance (White to off-white powder),[3]; 0 time,White
same,Assay (HPLC) (98.0-102.0%),[3]; 0 time,101.7%
same,Individual unknown impurity NMT 0.10%,[3]; 0 time,0.01%
same,Purity (HPLC) NLT 99.0%,[3]; 0 time,99.9%
same,Total impurities NMT 1.00%,[3]; 0 time,0.08%
same,"Water content (KF), NMT 1.00%",[3]; 0 time,0.17%
same,AICA NMT 0.15%,[3]; 1 month,0.02%
same,Appearance (White to off-white powder),[3]; 1 month,White
same,Assay (HPLC) (98.0-102.0%),[3]; 1 month,101.4%
same,Individual unknown impurity NMT 0.10%,[3]; 1 month,0.02%
same,Purity (HPLC) NLT 99.0%,[3]; 1 month,100.0%
same,Total impurities NMT 1.00%,[3]; 1 month,0.03%
same,"Water content (KF), NMT 1.00%",[3]; 1 month,0.36%
same,AICA NMT 0.15%,[3]; 2 months,0.04%
same,Appearance (White to off-white powder),[3]; 2 months,White
same,Assay (HPLC) (98.0-102.0%),[3]; 2 months,99.8%
same,Individual unknown impurity NMT 0.10%,[3]; 2 months,0.01%
same,Purity (HPLC) NLT 99.0%,[3]; 2 months,99.9%
same,Total impurities NMT 1.00%,[3]; 2 months,0.06%
same,"Water content (KF), NMT 1.00%",[3]; 2 months,0.20%
same,AICA NMT 0.15%,[3]; 3 months,0.01%
same,Appearance (White to off-white powder),[3]; 3 months,Light beige
same,Assay (HPLC) (98.0-102.0%),[3]; 3 months,99.6%
same,Individual unknown impurity NMT 0.10%,[3]; 3 months,0.01%
same,Purity (HPLC) NLT 99.0%,[3]; 3 months,100.0%
same,Total impurities NMT 1.00%,[3]; 3 months,0.03%
same,"Water content (KF), NMT 1.00%",[3]; 3 months,0.14%
same,AICA NMT 0.15%,[3]; 6 months,0.01%
same,Appearance (White to off-white powder),[3]; 6 months,Light beige
same,Assay (HPLC) (98.0-102.0%),[3]; 6 months,99.7%
same,Individual unknown impurity NMT 0.10%,[3]; 6 months,0.01%
same,Purity (HPLC) NLT 99.0%,[3]; 6 months,99.9%
same,Total impurities NMT 1.00%,[3]; 6 months,0.05%
same,"Water content (KF), NMT 1.00%",[3]; 6 months,0.34%
same,AICA NMT 0.15%,[3]; 9 months,0.04%
same,Appearance (White to off-white powder),[3]; 9 months,Light beige
same,Assay (HPLC) (98.0-102.0%),[3]; 9 months,98.5%
same,Individual unknown impurity NMT 0.10%,[3]; 9 months,0.01%
same,Purity (HPLC) NLT 99.0%,[3]; 9 months,99.9%
same,Total impurities NMT 1.00%,[3]; 9 months,0.05%
same,"Water content (KF), NMT 1.00%",[3]; 9 months,0.21%
same,AICA NMT 0.15%,[3]; 12 months,0.06%
same,Appearance (White to off-white powder),[3]; 12 months,Light beige
same,Assay (HPLC) (98.0-102.0%),[3]; 12 months,99.2%
same,Individual unknown impurity NMT 0.10%,[3]; 12 months,0.02%
same,Purity (HPLC) NLT 99.0%,[3]; 12 months,99.8%
same,Total impurities NMT 1.00%,[3]; 12 months,0.09%
same,"Water content (KF), NMT 1.00%",[3]; 12 months,0.11%
same,Long-term stability (in words),"[3]; prepared by conventional method, temperature 2-8° C.",stable
same,Time stable,"[4]; prepared by the process of the present invention, temperature 2-8° C.",at least 18 months
same,AICA NMT 0.15%,[4]; 0 time,0.01%
same,Appearance (White to off-white powder),[4]; 0 time,White
same,Assay (HPLC) (98.0-102.0%),[4]; 0 time,99.7%
same,Purity (HPLC) NLT 99.0%,[4]; 0 time,100.0%
same,Total impurities NMT 1.00%,[4]; 0 time,0.01%
same,"Water content (KF), NMT 1.00%",[4]; 0 time,0.09%
same,AICA NMT 0.15%,[4]; 1 month,0.01%
same,Appearance (White to off-white powder),[4]; 1 month,White
same,Assay (HPLC) (98.0-102.0%),[4]; 1 month,98.6%
same,Purity (HPLC) NLT 99.0%,[4]; 1 month,100.0%
same,Total impurities NMT 1.00%,[4]; 1 month,0.01%
same,"Water content (KF), NMT 1.00%",[4]; 1 month,0.07%
same,AICA NMT 0.15%,[4]; 2 months,0.01%
same,Appearance (White to off-white powder),[4]; 2 months,White
same,Assay (HPLC) (98.0-102.0%),[4]; 2 months,99.3%
same,Purity (HPLC) NLT 99.0%,[4]; 2 months,100.0%
same,Total impurities NMT 1.00%,[4]; 2 months,0.01%
same,"Water content (KF), NMT 1.00%",[4]; 2 months,0.04%
same,AICA NMT 0.15%,[4]; 3 months,0.09%
same,Appearance (White to off-white powder),[4]; 3 months,White
same,Assay (HPLC) (98.0-102.0%),[4]; 3 months,99.6%
same,Purity (HPLC) NLT 99.0%,[4]; 3 months,99.7%
same,Total impurities NMT 1.00%,[4]; 3 months,0.09%
same,"Water content (KF), NMT 1.00%",[4]; 3 months,0.09%
same,Appearance (White to off-white powder),[4]; 6 months,White
same,Assay (HPLC) (98.0-102.0%),[4]; 6 months,99.9%
same,Purity (HPLC) NLT 99.0%,[4]; 6 months,100.0%
same,"Water content (KF), NMT 1.00%",[4]; 6 months,0.12%
same,AICA NMT 0.15%,[4]; 9 months,0.01%
same,Appearance (White to off-white powder),[4]; 9 months,White
same,Assay (HPLC) (98.0-102.0%),[4]; 9 months,100.8%
same,Purity (HPLC) NLT 99.0%,[4]; 9 months,100.0%
same,Total impurities NMT 1.00%,[4]; 9 months,0.01%
same,"Water content (KF), NMT 1.00%",[4]; 9 months,0.15%
same,AICA NMT 0.15%,[4]; 12 months,0.02%
same,Appearance (White to off-white powder),[4]; 12 months,Light pink
same,Assay (HPLC) (98.0-102.0%),[4]; 12 months,99.8%
same,Purity (HPLC) NLT 99.0%,[4]; 12 months,100.0%
same,Total impurities NMT 1.00%,[4]; 12 months,0.02%
same,"Water content (KF), NMT 1.00%",[4]; 12 months,0.06%
same,Appearance (White to off-white powder),[4]; 18 months,White
same,Assay (HPLC) (98.0-102.0%),[4]; 18 months,99.8%
same,Purity (HPLC) NLT 99.0%,[4]; 18 months,100.0%
same,"Water content (KF), NMT 1.00%",[4]; 18 months,0.16%

# Reference: patent US20120108811A1, “PROCESS FOR PREPARING TEMOZOLOMIDE” (FORMOSA LABORATORIES INC., priority 2010, published 2012)
